Results published in patent publication US9353090B2, “Heterocyclic carboxylic acids as activators of soluble guanylate cyclase” (Boehringer Ingelheim International GmbH, priority 2014, dated 2016).
In brackets after ≈: the same amount, converted by molar mass.

How the values were obtained:
physchem = settings: kinetic from dmso stock
[1] = Human liver microsome (HLM) metabolic stability assay; format: in vitro ADME; settings: human liver microsomes
Procedure: The 5 time point, high-throughput human liver microsome (HLM) metabolic stability assay is designed to determine in vitro compound metabolism. Compounds are incubated with HLMs at a concentration of 1 uM, at 37° C., for a total of 60 min. The percent of compound remaining at 5, 15, 30, and 60 min is used to calculate the t1/2 (min), CLint (mL/min/kg), CLh (mL/min/kg), and % Qh. The assay is based on a 96-well format and can accommodate up to 92 compounds per plate (n=1).
Using the 96-well multi-channel head, the Biomek FX, equipped with a Peltier heating block/shaker, is programmed to accomplish the following steps: • 1. Pipette 175 uL of 1.15 mg/mL microsomes into each of the 96 conical inserts (Analytical Sales and Products, catalog number 96PL05) that fit into the plate of the Peltier heating block/shaker (the incubation plate) • 2. Add 5 uL of compounds from the assay plate to the microsomes and shake the mixture at 600 rpm at 42.1° C. for 10 min (a setting of 42.1° C. on the Peltier is required for the samples to incubate at 37° C.) • 3. After 10 min, prompt the user to add the NADPH plate to the deck and add 20 uL from the NADPH plate to the incubation plate to start the reaction • 4. Add 215 uL of 100%, cold acetonitrile containing an internal standard(s) to a 0 minute, 5 minute, 15 minute, 30 minute, and 60 minute “quench” plate • 5. At 0 min, 5 min, 15 min, 30 min, and 60 min into the incubation, aspirate 12 uL from the incubation mixture and add it to the quench solution to stop the reaction • 6. Add 185 uL HPLC grade water to each well of the 0, 5, 15, 30 and 60 minute quench plates to dilute compounds to the appropriate concentration for the mass spectrometer
After all time points are collected, the quench plates are sealed with 96-well pierceable plate mats or heat sealing foil and centrifuged at 3000 rpm for 15 min to pellet the microsomes.
The plates are analyzed using LC/MS/MS with electron spray ionization (ESI) and the previously determined MRM transitions. The LC method includes the following parameters:
Using an Excel template in Activitybase, the peak areas corresponding to 5, 15, 30 and 60 min are compared to the peak area at 0 min to calculate the percent of remaining compound using the following equation:
Percent compound remaining=(AUC at Time t min/AUC at Time 0 min)×100 where t=0, 5, 15, 30 or 60 min.
Time (min) is plotted against the natural logarithm (Ln) of the percent compound remaining to determine the slope. The slope is used to calculate t1/2 (min) using the equation, t1/2=0.693/slope.
Clh, Hepatic clearance • Hepatic flow*f(u)*Clint/(hepatic flow+f(u)*Clint)
Qh, % Hepatic blood flow • (Clh/Hepatic flow)*100
Preferred compounds have % Qh values of less than 24.

[2] = molecular target: human soluble guanylate cyclase alpha 1 and beta 1 subunits (sGC) (Homo sapiens (Human), UniProt Q02108+Q02153); assay: sGC cellular activator assay (cGMP, HTRF), in the presence and absence of 50% human serum; format: cell-based; settings: CHO cells stably expressing human sGC alpha 1/beta 1, preincubated with 40 microM ODQ; cGMP by HTRF; Table 2 does not state whether with or without 50% human serum
human soluble guanylate cyclase alpha 1 and beta 1 subunits (sGC), sequence (Q02108 whole entry partner): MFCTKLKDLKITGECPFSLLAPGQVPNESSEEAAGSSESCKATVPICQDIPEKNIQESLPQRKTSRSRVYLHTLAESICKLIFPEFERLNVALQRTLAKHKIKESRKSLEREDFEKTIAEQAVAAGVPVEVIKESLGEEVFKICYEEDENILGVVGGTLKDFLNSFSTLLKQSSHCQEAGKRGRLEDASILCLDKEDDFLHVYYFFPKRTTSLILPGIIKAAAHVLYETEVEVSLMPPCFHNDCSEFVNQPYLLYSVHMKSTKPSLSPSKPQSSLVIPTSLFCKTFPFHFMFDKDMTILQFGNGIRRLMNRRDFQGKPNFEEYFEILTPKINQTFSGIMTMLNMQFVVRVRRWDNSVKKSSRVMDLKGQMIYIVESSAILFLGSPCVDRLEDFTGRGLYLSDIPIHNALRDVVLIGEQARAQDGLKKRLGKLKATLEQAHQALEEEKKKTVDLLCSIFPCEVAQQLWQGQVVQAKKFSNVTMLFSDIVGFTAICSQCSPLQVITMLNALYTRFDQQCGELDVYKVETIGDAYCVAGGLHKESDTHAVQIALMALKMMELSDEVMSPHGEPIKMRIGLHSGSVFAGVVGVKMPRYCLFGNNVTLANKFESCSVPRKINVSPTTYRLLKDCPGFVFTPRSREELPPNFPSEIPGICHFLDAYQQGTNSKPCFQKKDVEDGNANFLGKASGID
human soluble guanylate cyclase alpha 1 and beta 1 subunits (sGC), sequence (Q02153 whole entry): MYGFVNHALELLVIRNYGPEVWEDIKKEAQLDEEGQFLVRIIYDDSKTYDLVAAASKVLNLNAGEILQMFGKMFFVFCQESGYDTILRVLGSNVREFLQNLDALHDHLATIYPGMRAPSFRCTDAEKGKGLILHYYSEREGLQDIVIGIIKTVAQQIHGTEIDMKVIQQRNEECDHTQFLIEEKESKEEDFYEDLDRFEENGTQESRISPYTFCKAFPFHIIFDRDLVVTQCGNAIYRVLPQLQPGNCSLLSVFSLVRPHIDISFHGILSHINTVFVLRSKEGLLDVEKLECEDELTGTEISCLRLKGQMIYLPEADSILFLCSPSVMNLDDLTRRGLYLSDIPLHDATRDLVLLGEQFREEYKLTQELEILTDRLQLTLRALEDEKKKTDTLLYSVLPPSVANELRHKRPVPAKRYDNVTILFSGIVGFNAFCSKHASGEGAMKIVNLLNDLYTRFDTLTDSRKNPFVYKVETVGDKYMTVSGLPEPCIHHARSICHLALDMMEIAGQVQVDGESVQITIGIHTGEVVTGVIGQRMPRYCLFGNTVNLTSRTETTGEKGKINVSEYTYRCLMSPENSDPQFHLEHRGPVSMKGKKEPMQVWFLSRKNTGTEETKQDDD
Procedure: The sGC cellular activator assay is performed in the presence and absence of 50% human serum (HS) using Chinese hamster ovary cells that have been stably transfected to express the human soluble guanylate cyclase alpha 1 and beta 1 subunits (sGC). Cells are preincubated with 40 microM 1H-[1,2,4]oxadiazolo[4,3-a]quinoxalin-1-one (ODQ), an sGC inhibitor, for one h in buffer containing 0.1% bovine serum albumin and 3-isobutyl-1-methylxanthine (IBMX). Concentration response curves are prepared for test compounds in DMSO. An intermediate dilution of the compounds is performed in either buffer containing IBMX or type AB HS containing IBMX. Diluted compounds are added to cells and they are incubated at room temperature for thirty min. cGMP is measured using a CisBio homogeneous time resolved fluorescence kit and the EC50 is calculated for each compound.
Representative compounds of the present invention were tested for activity the above assay. Preferred compounds have an EC50 of <1,000 nM in the above assay and more preferred compounds have an EC50<200 nM.

[3] = pH 2.2, aqueous buffer, Solubility (pH 2.2)
[4] = pH 4.5, aqueous buffer, Solubility (pH 4.5)
[5] = pH 6.8, aqueous buffer, Solubility (pH 6.8)

SMILES | solubility at 24 h (physchem; [3]) | solubility at 24 h (physchem; [4]) | solubility at 24 h (physchem; [5]) | Metabolic stability (Qh %), % hepatic blood flow [1] | EC50 [2]
Cc1c(COc2ccccc2-c2cccc(N3CC[C@@]4(C(=O)O)C[C@H]4C3)n2)ccc2c1CCN([C@H]1CCCOC1)C2 [Compound 11] | 140 µg/mL (≈ 253 µM) | 110 µg/mL (≈ 199 µM) | 46 µg/mL (≈ 83.1 µM) | 53% | 4 nM
CO[C@H]1CN(c2nc(-c3cc(C)ccc3OCc3ccc4c(c3C)CCN(C[C@H]3CCOC3)C4)cs2)CC[C@H]1C(=O)O [Compound 179] | – | – | – | – | 17 nM
Cc1ccc(OCc2ccc3c(c2)CCN(C2CCC(F)(F)CC2)C3)c(-c2csc(N3C[C@H]4CC[C@@H](C3)[C@H]4C(=O)O)n2)c1 [Compound 183] | – | – | – | 42% | 80 nM
Cc1ccc(OCc2ccc3c(c2)CCN(C2CCOCC2)C3)c(-c2csc(N3C[C@H]4CC[C@@H](C3)[C@H]4C(=O)O)n2)c1 [Compound 184] | – | – | – | – | 68 nM
Cc1ccc(OCc2ccc3c(c2)CCN(C2CCOCC2)C3=O)c(-c2cccc(N3CC[C@@]4(C(=O)O)C[C@H]4C3)n2)c1 [Compound 193] | – | – | – | 52% | 22 nM
CCO[C@H]1CN(c2nccc(-c3cccc(C)c3OCc3cc(C)c4c(c3)CCN(C3CCOCC3)C4)n2)CC[C@H]1C(=O)O [Compound 245] | – | – | – | <24% | 23 nM
CCO[C@@H]1CN(c2nccc(-c3cccc(C)c3OCc3cc(C)c4c(c3)CCN(C3CCOCC3)C4)n2)CC[C@@H]1C(=O)O [Compound 247] | – | – | – | <24% | 659 nM
CO[C@H]1CN(c2nc(-c3cccc(C)c3OCc3cc(C)c4c(c3)CCN(C3COC3)CC4)cs2)CC[C@H]1C(=O)O [Compound 294] | 108 µg/mL (≈ 187 µM) | 77.7 µg/mL (≈ 134 µM) | 77.9 µg/mL (≈ 135 µM) | <24% | –
CO[C@H]1CN(c2nc(-c3cccc(C)c3OCc3cc(C)c4c(c3)CCN(C3CCOCC3)CC4)cs2)CC[C@H]1C(=O)O [Compound 295] | 109 µg/mL (≈ 180 µM) | 80.5 µg/mL (≈ 133 µM) | 79.2 µg/mL (≈ 131 µM) | <24% | –
Cc1csc(CN2CCc3c(ccc(COc4ccccc4-c4cccc(N5CC[C@@]6(C(=O)O)C[C@H]6C5)n4)c3C)C2)n1 [Compound 304] | 157 µg/mL (≈ 270 µM) | 154 µg/mL (≈ 265 µM) | 146 µg/mL (≈ 251 µM) | 48% | –
COCC(C)N1CCc2c(ccc(COc3ccccc3-c3cccc(N4CC[C@@]5(C(=O)O)C[C@H]5C4)n3)c2C)C1 (stereo partly drawn) [Compound 310] | 93 µg/mL (≈ 172 µM) | 73.7 µg/mL (≈ 136 µM) | 5.2 µg/mL (≈ 9.6 µM) | – | 5 nM
CO[C@H]1CN(c2nc(-c3cccc(Cl)c3OCc3ccc4c(c3)CCN(C3CCOCC3)C[C@H]4C)cs2)CC[C@H]1C(=O)O [Compound 333] | 109 µg/mL (≈ 173 µM) | 68.3 µg/mL (≈ 109 µM) | 66.7 µg/mL (≈ 107 µM) | – | 10 nM
Cc1cccc(-c2cccc(N3CC[C@@H](C(=O)O)[C@H]4OCCC[C@@H]43)n2)c1OCc1ccc2c(c1C)CCN(C1CCOCC1)CC2 [Compound 335] | – | – | – | – | 80 nM
